Here are results for 38 compounds from ChEMBL document CHEMBL1138936, “Potent hFPRL1 (ALXR) agonists as potential anti-inflammatory agents” (Bioorg Med Chem Lett, 2006).

Structures are written as SMILES. Calls of active or inactive are those of the source.

Data set [1] deals with T1, N-formyl peptide receptor 2 (Homo sapiens, UniProt P25090).
T1 sequence (P25090 whole entry): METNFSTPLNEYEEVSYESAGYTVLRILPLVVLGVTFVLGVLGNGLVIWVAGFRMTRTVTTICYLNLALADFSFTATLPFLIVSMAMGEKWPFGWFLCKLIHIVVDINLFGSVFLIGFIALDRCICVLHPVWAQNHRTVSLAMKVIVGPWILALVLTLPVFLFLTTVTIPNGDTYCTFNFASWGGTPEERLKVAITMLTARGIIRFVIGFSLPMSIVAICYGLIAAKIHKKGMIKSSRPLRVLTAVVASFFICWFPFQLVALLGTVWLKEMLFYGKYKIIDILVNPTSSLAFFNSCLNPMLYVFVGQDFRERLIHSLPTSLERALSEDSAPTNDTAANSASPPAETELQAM
Kind of data set: Activity at human FPRL1-mediated calcium mobilization in CHO cells. Format: functional, cell-based. A general note: Calcium flux is commonly read through the fluorescence of an indicator in the cells.

Data set [2] is filed under the species Mus musculus. As to the kind of experiment: Reduction of swelling in mouse ear at 2.5 ug. The arrangement: scale not given: the % may be the effect or the level left. It counts as functional.
The subject of data set [3] is PMNL. Kind of data set: Inhibition of fMLP-induced PMN migration. Format: functional, cell-based. Conditions: Homo sapiens.
The species entered for data set [4] is Mus musculus. Kind of data set: Reduction of swelling in mouse ear at 25 ug. Format: functional. On the set-up: scale not given: the % may be the effect or the level left.
The species entered for data set [5] is Mus musculus. As to the kind of experiment: Reduction of swelling in mouse ear at 0.25 ug. It counts as functional. The arrangement: scale not given: the % may be the effect or the level left.
Data set [6] relates to PMNL. Kind of data set: Inhibition of IL8-induced PMN migration. Format: functional, cell-based. Conditions: Homo sapiens.
The species named for data set [7] is Mus musculus. Kind of data set: Reduction of swelling in mouse ear at 30 ug. It counts as functional. The arrangement: scale not given: the % may be the effect or the level left.
The test system of data set [8] is Mus musculus. As to the kind of experiment: Reduction of edema in mouse ear inflammation model at 1 mg/kg, po. On the set-up: scale not given: the % may be the effect or the level left. It counts as functional.
The subject of data set [9] is Mus musculus. As to the kind of experiment: Unbound ligand concentration in mouse plasma at 50 mg/kg. The arrangement: dose 50 mg/kg. Format: ADME, organism-based. Particulars: in vivo.
Data set [10] deals with Mus musculus. Kind of data set: Reduction of edema in mouse ear inflammation model at 5 mg/kg, po. It counts as functional. On the set-up: scale not given: the % may be the effect or the level left.
A short description of data set [11]: Clearance in rat at 0.5 mg/kg, iv. Format: ADME, organism-based. On the set-up: dose 0.5 mg/kg, route intravenous. Conditions: in vivo.
In data set [12] the test system is Mus musculus. As to the kind of experiment: Reduction of edema in mouse ear inflammation model at 16.6 mg/kg, po. Format: functional. The arrangement: scale not given: the % may be the effect or the level left.
A short description of data set [13]: Protein binding in mouse plasma. Format: ADME, organism-based. Conditions: read-out: PPB (converted).
A short description of data set [14]: Bioavailability in rat at 2 mg/kg, po. Conditions: in vivo. Format: ADME, organism-based.
Data set [15] concerns Mus musculus. Kind of data set: Reduction of edema in mouse ear inflammation model at 50 mg/kg, po. Format: functional. The arrangement: scale not given: the % may be the effect or the level left.
Data set [16] deals with Mus musculus. As to the kind of experiment: Unbound ligand concentration in mouse plasma at 16.6 mg/kg. Format: ADME, organism-based. The arrangement: dose 16.6 mg/kg. Conditions: in vivo.
Data set [17] concerns Mus musculus. As to the kind of experiment: Unbound ligand concentration in mouse plasma at 5 mg/kg. It counts as ADME, organism-based. On the set-up: dose 5 mg/kg. Particulars: in vivo.
Data set [18] can be described thus: Half life in rat at 0.5 mg/kg, iv. Format: ADME, organism-based. The arrangement: dose 0.5 mg/kg, route intravenous. Particulars: in vivo.

On to `CSc1ccc(NC(=O)Nc2c(C(C)C)n(C)n(C3=NCCS3)c2=O)cc1`, for which the EC50 in [1] was determined as 5130 nM. On the same count and under the same terms, next, `CCn1c(C(C)C)c(NC(=O)Nc2ccc(C)c(F)c2)c(=O)n1-c1ccccc1`: 100 nM.

Regarding `CSc1ccc(NC(=O)Nc2c(C)n(C)n(-c3ccccc3)c2=O)cc1`, the 50% effective concentration (EC50) in data set [1] turned out to be 170 nM. Still for that read-out and setting: the figure for `CCc1ccc(NC(=O)Nc2c(C)n(C)n(-c3ccccc3)c2=O)cc1` is 770 nM; for `CC(C)c1c(NC(=O)Nc2ccccc2Cl)c(=O)n(-c2ccccc2)n1C` it is more than 10000 nM; for `Cc1c(NC(=O)Nc2nccs2)c(=O)n(-c2ccccc2)n1C` it is more than 10000 nM.

For `Cc1ccc(NC(=O)Nc2c(C(C)(C)C)n(C)n(-c3ccccc3)c2=O)cc1F`, the EC50 in data set [1] stood at 83 nM. The same measure, in the same setting: next, `CC(C)c1c(NC(=O)Nc2ccc(C(F)(F)F)cc2)c(=O)n(C2=NCCS2)n1C`: 1470 nM.

Take `Cc1c(NC(=O)Nc2ccc(I)cc2)c(=O)n(-c2ccccc2)n1C`: the Activity in data set [2] was found to be 35%; in [4], 52%; in data set [5] it was 31%. Further, the EC50 in [1] came to 30 nM. In addition, the half-inhibitory concentration (IC50) in data set [3] and in data set [6] was 2000 nM throughout. In the case of `Cc1ccc(NC(=O)Nc2c(C)n(C)n(-c3ccccc3)c2=O)cc1`, the EC50 in data set [1] was determined as 1260 nM. On the same count and under the same terms, the figure for `Cc1c(NC(=O)Nc2ccc(Br)cc2)c(=O)n(-c2ccccc2)n1C` is 90 nM.

Take `Cc1c(NC(=O)Nc2ccc(Cl)cc2)c(=O)n(-c2ccccc2)n1C`: in data set [1], the EC50 turned out to be 490 nM. The same measure, in the same setting: next, `Cc1c(NC(=O)Nc2ccc(C(F)(F)F)cc2)c(=O)n(-c2ccccc2)n1C`: 100 nM; `Cc1ccc(NC(=O)Nc2c(C(C)C)n(C)n(-c3ccccc3)c2=O)cc1F`: 81 nM; `CCc1c(NC(=O)Nc2ccc(Cl)cc2)c(=O)n(-c2ccccc2)n1C`: 140 nM. Still for that read-out and setting: next, `Cc1c(NC(=O)Nc2ccc(C#N)cc2)c(=O)n(-c2ccccc2)n1C`: 3700 nM. As to `C[C@@H]1C[C@H]2[C@@H]3CCC4=CC(=O)C=C[C@]4(C)[C@@]3(F)[C@@H](O)C[C@]2(C)[C@@]1(O)C(=O)CO` [DEXAMETHASONE], the Activity in data set [7] worked out at 71%; in data set [8], 54%.

Turning to `Cc1cc(NC(=O)Nc2c(C)n(C)n(-c3ccccc3)c2=O)ccc1F`, the EC50 in data set [1] is more than 10000 nM. On the same count and under the same terms, the figure for `Cc1c(NC(=O)Nc2ccccc2Cl)c(=O)n(-c2ccccc2)n1C` is more than 10000 nM; for `Cc1c(NC(=O)Nc2ccc(F)cc2)c(=O)n(-c2ccccc2)n1C` it is 4850 nM. Same read-out and setting: next, `CC(C)c1c(NC(=O)Nc2ccc(C(F)(F)F)cc2)c(=O)n(-c2cncnc2)n1C`: 150 nM; `Cc1c(NC(=O)Nc2ccc(C(C)C)cc2)c(=O)n(-c2ccccc2)n1C`: 12300 nM; `CCc1c(NC(=O)Nc2ccc(C)c(F)c2)c(=O)n(-c2ccccc2)n1C`: 310 nM. Take `Cn1c(C(C)(C)C)c(NC(=O)Nc2ccc(Cl)cc2)c(=O)n1-c1ccccc1`: the EC50 in data set [1] was found to be 23 nM. On to `CC(C)c1c(NC(=O)Nc2ccc(Cl)cc2)c(=O)n(-c2cnc3ccccc3c2)n1C`, for which the EC50 in data set [1] was 80 nM. With `CC(C)c1c(NC(=O)Nc2ccc(Cl)cc2)c(=O)n(C2=NCCS2)n1C`, the EC50 in data set [1] came to 540 nM. Consider `CCCCC(Oc1ccccc1)[C@@H](O)/C=C/C=C\C=C\C=C\[C@@H](O)[C@@H](O)CCCC(=O)O` (stereo not given in full), for which the outcome in data set [4] was Active. On to `CC1C(N(C)C(=O)N(C)c2ccc(I)cc2)C(=O)N(c2ccccc2)N1C` (stereo not given), for which the Activity amounted to 8% in [2], 8% in data set [4] and 2% in data set [5]. In addition, the EC50 in data set [1] is more than 10000 nM. Besides, the IC50 in data set [3] and in data set [6] was more than 10000 nM throughout.

With `Cc1c(NC(=O)Nc2ccc3c(c2)OCO3)c(=O)n(-c2ccccc2)n1C`, the EC50 in data set [1] worked out at 5880 nM. `CC(C)c1c(NC(=O)Nc2ccc(Cl)cc2)c(=O)n(-c2ccccc2)n1C`: the unbound plasma concentration in data set [9] worked out at 185 nM; in data set [16] it was 17 nM; in data set [17], 14 nM. Moreover, the Activity in data set [10] is recorded as 11%; in data set [12], 39%; in data set [15], 58%. Moreover, the IC50 in data set [3] stood at 640 nM; in data set [6], 240 nM. The clearance in data set [11] is 2.1 mL/min/kg. Besides, in data set [13], the fraction unbound was 0.021. For the same compound, the bioavailability in data set [14] turned out to be 91%. The compound further showed a half-life in [18] of 2.78 h. With `Cc1ccc(NC(=O)Nc2c(C)n(C)n(-c3ccccc3)c2=O)cc1F`, in data set [1], the 50% effective concentration (EC50) was found to be 980 nM. Still for that read-out and setting: next, `CC(C)c1c(NC(=O)Nc2ccc(Cl)cc2)c(=O)n(-c2cncnc2)n1C`: 250 nM. `Cc1c(NC(=O)Nc2ccccc2)c(=O)n(-c2ccccc2)n1C`: the EC50 in [1] is more than 10000 nM. Still for that read-out and setting: next, `CSc1ccc(NC(=O)Nc2c(C(C)C)n(C)n(-c3cnc4ccccc4c3)c2=O)cc1`: 30 nM; `Cc1c(NC(=O)Nc2cccc(Cl)c2)c(=O)n(-c2ccccc2)n1C`: more than 10000 nM. On the same count and under the same terms, next, `COc1ccc(NC(=O)Nc2c(C)n(C)n(-c3ccccc3)c2=O)cc1`: 2730 nM; `CSc1ccc(NC(=O)Nc2c(C(C)C)n(C)n(-c3cncnc3)c2=O)cc1`: 43 nM; `CC(C)c1c(NC(=O)Nc2ccc(C(F)(F)F)cc2)c(=O)n(-c2cnc3ccccc3c2)n1C`: 44 nM.

The term EC50 denotes the concentration at which the effect is half-maximal. Usually IC50 stands for the concentration needed to halve the response being measured. Usually clearance stands for the rate of elimination divided by the concentration. The term bioavailability denotes the share of a dose that reaches the circulation, judged against a reference dose that is usually intravenous. Broadly, the half-life is the time needed for the level to fall by half in the phase considered.
